The values that follow come from ChEMBL document CHEMBL6115026, “Synthesis and Biological Evaluation of Peripheral 5HT2B Antagonists for Liver Fibrosis” (J Med Chem, 2025).

In data set [1] the target is T1, 5-hydroxytryptamine receptor 2B (Homo sapiens, UniProt P41595). Nature of the data set: Antagonist activity at 5HT2B (unknown origin) expressed in FRT cells co-expressing ANO1 and YFP assessed as inhibition of 5HT-induced increase in iodide influx at 1 uM preincubated with compound for 10 mins followed by 5-HT addition and measured after 8 sec by YFP fluorescence quenching analysis relative to control. Format: cell-based. The following applies: time 608.0 sec.
T1 sequence (P41595 whole entry): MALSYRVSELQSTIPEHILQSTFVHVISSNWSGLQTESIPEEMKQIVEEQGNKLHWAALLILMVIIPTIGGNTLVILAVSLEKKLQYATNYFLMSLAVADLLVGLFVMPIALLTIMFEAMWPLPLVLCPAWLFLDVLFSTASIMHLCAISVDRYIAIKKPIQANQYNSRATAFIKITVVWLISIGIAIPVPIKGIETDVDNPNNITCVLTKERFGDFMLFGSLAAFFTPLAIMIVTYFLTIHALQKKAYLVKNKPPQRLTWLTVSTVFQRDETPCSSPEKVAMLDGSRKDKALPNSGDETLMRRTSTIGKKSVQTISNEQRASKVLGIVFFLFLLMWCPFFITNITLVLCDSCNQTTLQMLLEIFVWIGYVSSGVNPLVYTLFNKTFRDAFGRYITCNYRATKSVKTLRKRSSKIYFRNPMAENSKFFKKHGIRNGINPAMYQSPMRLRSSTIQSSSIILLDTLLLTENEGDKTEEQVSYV

Data set [2] addresses T1, 5-hydroxytryptamine receptor 2B. Nature of the data set: Antagonist activity at 5HT2B (unknown origin) expressed in FRT cells co-expressing ANO1 and YFP assessed as inhibition of 5HT-induced increase in iodide influx preincubated with compound for 10 mins followed by 5-HT addition and measured after 8 sec by YFP fluorescence quenching analysis. Format: cell-based.
Data set [3] is described as follows: Drug concentration in male mouse brain at 5 mg/kg, ip measured after 0.5 hrs. Format: ADME, organism-based. To be noted: read-out: Ct.
Data set [4] can be described thus: Drug concentration in male mouse plasma at 5 mg/kg, ip measured after 0.5 hrs. Format: ADME, organism-based.
Data set [5] in a line: Ratio of drug concentration in male mouse brain to plasma at 5 mg/kg, ip measured after 0.5 hrs. Format: ADME, organism-based. The following applies: brain and plasma, read-out: BPR.
Data set [6] has as its target T1, 5-hydroxytryptamine receptor 2B. Kind of data set: Binding affinity to 5-HT2B (unknown origin).

For the compound `COc1ccc(S(=O)(=O)N[C@H]2CCN(C(=O)[C@@H](N)CC(=O)O)C2)cc1C(=O)Nc1ccccc1Cl`, the inhibition (in general, the drop in the measured response relative to a control, in per cent) in data set [1] (filed as antagonist) came to 94.3%. Besides, the IC50 (as a rule, the concentration that gives 50% inhibition) in data set [2] worked out at 80.7 nM.

For the compound `COc1ccc(S(=O)(=O)N[C@H]2CCOC2)cc1C(=O)Nc1ccccc1Cl`, the values for the concentration at 0.5 h in data set [3] and in data set [4] were 51.7 ng/g and 99.2 ng/mL, respectively. Moreover, the inhibition in data set [1] (filed as antagonist) turned out to be 98.8%. Moreover, the IC50 in data set [2] was found to be 1.8 nM. The Kp at 0.5 h in data set [5] was 0.53.

In the case of `COc1ccc(S(=O)(=O)N[C@H]2CCOC2)cc1C(=O)Nc1ccccc1N1CCNCC1`, the inhibition in data set [1] was found to be 15%.

As for `COc1ccc(S(=O)(=O)NC2CCN(C(=O)OC(C)(C)C)CC2)cc1C(=O)Nc1ccccc1Cl`, the inhibition in data set [1] (filed as antagonist) was 47.1%.

As to `COc1ccc(S(=O)(=O)N[C@H]2CCOC2)cc1C(=O)Nc1ccccc1N1CCN(C(=O)OC(C)(C)C)CC1`, in data set [1], the inhibition was found to be 1.64%.

For the compound `O=C(c1ccc(-c2ccccc2)cc1)N1CCC(c2cc3ccccc3[nH]2)CC1`, the IC50 in data set [6] was 2.4 nM.

With `COc1ccc(S(=O)(=O)NC2CCNCC2)cc1C(=O)Nc1ccccc1Cl`, in data set [1] (filed as antagonist), the inhibition worked out at 96.3%.

For the compound `COc1ccc(S(=O)(=O)N[C@H]2CCN(C(=O)C[C@H](N)C(=O)O)C2)cc1C(=O)Nc1ccccc1Cl`, the inhibition in data set [1] (filed as antagonist) was determined as 103%. For the same compound, the IC50 in data set [2] turned out to be 10 nM.

With `COc1ccc(S(=O)(=O)N[C@@H]2CCN(C(=O)C[C@H](N)C(=O)O)C2)cc1C(=O)Nc1ccccc1Cl`, in data set [1] (filed as antagonist), the inhibition was 100%.

Turning to `COc1ccc(S(=O)(=O)N[C@@H]2CCN(C(=O)OC(C)(C)C)C2)cc1C(=O)Nc1ccccc1Cl`, the inhibition in data set [1] (filed as antagonist) was determined as 99%.
